Where “and” joins values, the source holds several entries; their conditions need not be identical. Identical values can stand only once.
Columns and labels:
FASN thioesterase = target: T1, FASN thioesterase (Homo sapiens, UniProt P49327); assay: FP-PEG-TAMRA labeling of recombinant FASN thioesterase; format: binding; conditions: recombinant enzyme, 20 μM final, pH 7.8
T1 construct: label the active site of the FASN thioesterase and ACOT4
Procedure: (§1) Additionally, studies were performed to test the selectivity of Compounds 1, 16, 22, and 37 for the FASN thioesterase over its most closely related human homolog, the enzyme called ACOT4 (see FIG. 3). Both proteins were mixed and pretreated with the compound (20 μM final, pH 7.8) before addition of the fluorescent activity probe FP-PEG-TAMRA. Respective fluorescence of the bands was detected on a Hitachi flatbed scanner and a greyscale version used for quantitative analysis using ImageJ. Recombinant forms of each enzyme were incubated with compound 16, compound 1, compound 37, and compound 22. FP-TAMRA was included in this mixture to label the active site of the FASN thioesterase and ACOT4. […] These findings further attest to the high degree of selectivity of compounds 1, 16, 37 and 22 for the FASN thioesterase.

FASN = target: T2, FASN (Homo sapiens, UniProt P49327); assay: Competition with activity-based probe FP-PEG-TAMRA in PC-3 whole cell lysate: FASN; format: binding; conditions: PC-3 lysate, 20 μM final, pH 7.8
T2 construct: lysates of the prostate tumor line (PC3), which expresses FASN; endogenous in cells; host or cells: PC-3 prostate tumour cells (whole cell lysate)
Procedure: Studies were conducted to determine the selectivity of compound 16 for FASN over other human thioesterases. The ability of the compounds to bind the FASN holoenzyme was tested by assessing their ability to compete for the binding of an activity-based probe that covalently attaches to the active site of the FASN thioesterase. Thioesterases are members of the serine hydrolase family, which also includes a number of other types of enzymes including proteases, dipeptidyl peptidases, epoxide hydrolases, etc. To help assess the selectivity of compound 16, an activity-based probe polyethyleneglycol-6-carboxytetramethyl-rhodamine (FP-PEG-TAMRA) that binds covalently to the catalytic serine of all serine hydrolases was used. These studies were done by assessing the ability of compound 16 to compete for the binding of the activity-based probe in whole cell lysates. Several analogs of compound 16 were tested in this assay using lysates of the prostate tumor line (PC3), which expresses FASN, along with numerous other serine hydrolases. The PC-3 lysate was incubated with 8 different FASN inhibitors, including compounds 1, 16 and 97. Then the activity-based probe (FP-PEG-TAMRA) was added to each sample to label the serine hydrolases in the lysate.

FASN-TE [1] = target: T3, FASN-TE (Homo sapiens, UniProt P49327); assay: In-vitro biochemical assay measuring FAS-TE inhibition (OMFH substrate, fluorescence)
Procedure: Min wells: Substrate+No enzyme+DMSO, Max wells: Substrate+Enzyme+DMSO, Sample wells: Substrate+Enzyme+Test compounds, Reference compound: Orlistat (make a fresh 10 mM stock in DMSO each time). 384-well black, low-volume plate (Greiner #784076)
Assay Protocol: • 1) ECHO transfer 160 nL of 125× Compound (or DMSO for control wells) per well. • 2) For Max and Sample wells: Add 10 μL of Enzyme (2×; 1.8 μM) prepared in RXN Buffer. For Min wells: Add 10 μL of RXN Buffer (No Enzyme). • 3) For all wells: Add 10 μL of Substrate (2×; 20 μM) prepared in diH2O+10% DMSO. • 4) Centrifuge plate for 1 minute at 1,000 rpm. • 5) Measure fluorescence every 5 minutes for 1-1.5 hours using the BMG POLARstar (ex 485 nm/em 520 nm; Gain=1015; 25 flashes). • 6) All volumes can be adjusted but the final DMSO concentration should be kept at about 6%.
Data Analysis: • 1) Calculate slopes and express as % Activity (Min wells=0%; Max wells=100%). • 2) Then, using Prism, calculate the IC50 values.

ACOT4 = target: T4, ACOT4 (Homo sapiens, UniProt Q8N9L9); assay: FP-PEG-TAMRA labeling of recombinant ACOT4; format: binding; conditions: recombinant enzyme, 20 μM final, pH 7.8
T4 sequence (Q8N9L9 1-421): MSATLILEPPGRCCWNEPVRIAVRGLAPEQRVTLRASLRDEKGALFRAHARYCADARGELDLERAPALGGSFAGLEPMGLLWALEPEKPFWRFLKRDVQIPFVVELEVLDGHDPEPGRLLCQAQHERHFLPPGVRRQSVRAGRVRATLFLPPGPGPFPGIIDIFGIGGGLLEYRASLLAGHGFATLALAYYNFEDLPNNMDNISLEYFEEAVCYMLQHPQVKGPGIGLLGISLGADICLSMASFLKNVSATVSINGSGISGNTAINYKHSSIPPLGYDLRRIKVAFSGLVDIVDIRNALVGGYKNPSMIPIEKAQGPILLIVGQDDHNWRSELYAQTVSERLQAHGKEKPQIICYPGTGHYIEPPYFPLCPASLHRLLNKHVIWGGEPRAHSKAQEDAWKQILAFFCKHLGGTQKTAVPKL
Procedure: as §1

[2] = test system: prostate cancer PC-3 cells; assay: De novo palmitate synthesis from 13C-glucose in whole cells (GC-MS); format: cell-based; conditions: for de novo palmitate synthesis/DMSO (%): 20 μM, [U-13C]-glucose 24 h, pH 7.8, relative to DMSO control
Procedure: The ability of compounds to block biosynthesis of palmitate in whole cells (prostate cancer PC-3 cells) was measured by feeding cells isotopically labeled glucose (^13C-glucose) and measuring the incorporation of ^13C into palmitate by GC-MS.
Prostate cancer PC-3 cell were incubated with 20 μM of FASN inhibitors and labeled with [U-13C]-glucose for 24 h, pH 7.8. The incorporation of ^13C into palmitate from labeled glucose was determined by extracting fatty acids and resolving them by GC-MS. The mass distributions for fatty acid methyl esters for C16:0 (palmitate) were corrected for isotope natural abundance, and the corrected isotope patterns were used to calculate the labeling of acetyl-CoA in palmitate based on a binomial probability distribution of the incorporation of labeled acetyl units into the fatty acid chain.

sodium channel = assay: Eurofins Panlabs binding panel: sodium channel; conditions: 10 μM
Procedure: (§2) To further evaluate selectivity and identify any off-target effects, compound 37 was tested against a commercial panel of 34 binding assays (enzymes, receptors & ion channels) through Eurofins Panlabs. […] Compound 37 was also tested in a commercial panel of 17 diverse proteases (Reaction Biology).

CYP450 2C19 = target: T5, CYP450 2C19 (Homo sapiens, UniProt P33261); assay: Eurofins Panlabs binding panel: CYP450 2C19; conditions: 10 μM
T5 construct: purchased Eurofins Panlabs
Procedure: as §2

17 diverse proteases = assay: Commercial panel of 17 diverse proteases (Reaction Biology); format: biochemical; conditions: up to 100 μM
Procedure: as §2

FASN-TE [3] = target: T3, FASN-TE; assay: Eadie-Hofstee enzymology analysis; format: biochemical
Procedure: Furthermore, using a classical enzymology analysis (Eadie-Hofstee) compound 37 was determined to have a non-competitive mode of inhibition (see FIG. 2).

chymotrypsin = assay: Reaction Biology protease panel: chymotrypsin; format: biochemical; conditions: read-out: chymotrypsin inhibition (IC50)
Procedure: as §2

[4] = Pharmacokinetic study, IP dosing; format: in vivo; conditions: mice, 10 mg/kg IP
Procedure: A pharmacokinetic (PK) study of Compound 37 dosed systemically (IP) in mice was conducted. At 10 mg/kg (IP) compound 37 attained plasma levels post dosing of >3 μM up to 30 min., >2 μM up to 1 h, and >1 μM up to 2 h.

[5] = test system: enzymes, receptors & ion channels; assay: Commercial panel of 34 binding assays (Eurofins Panlabs); conditions: 10 μM
Procedure: as §2

T1 sequence (P49327 2207-2511 limits assumed): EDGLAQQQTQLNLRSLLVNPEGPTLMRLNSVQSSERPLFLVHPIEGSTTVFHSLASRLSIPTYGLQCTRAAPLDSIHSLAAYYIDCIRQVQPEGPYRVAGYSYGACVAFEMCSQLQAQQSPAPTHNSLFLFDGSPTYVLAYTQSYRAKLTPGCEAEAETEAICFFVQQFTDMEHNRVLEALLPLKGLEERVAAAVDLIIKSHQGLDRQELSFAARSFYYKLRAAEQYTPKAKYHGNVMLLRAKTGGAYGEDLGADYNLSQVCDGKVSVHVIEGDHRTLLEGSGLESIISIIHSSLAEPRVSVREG
T3 sequence (P49327 2207-2511 limits assumed): as above
T2 sequence (P49327 whole entry): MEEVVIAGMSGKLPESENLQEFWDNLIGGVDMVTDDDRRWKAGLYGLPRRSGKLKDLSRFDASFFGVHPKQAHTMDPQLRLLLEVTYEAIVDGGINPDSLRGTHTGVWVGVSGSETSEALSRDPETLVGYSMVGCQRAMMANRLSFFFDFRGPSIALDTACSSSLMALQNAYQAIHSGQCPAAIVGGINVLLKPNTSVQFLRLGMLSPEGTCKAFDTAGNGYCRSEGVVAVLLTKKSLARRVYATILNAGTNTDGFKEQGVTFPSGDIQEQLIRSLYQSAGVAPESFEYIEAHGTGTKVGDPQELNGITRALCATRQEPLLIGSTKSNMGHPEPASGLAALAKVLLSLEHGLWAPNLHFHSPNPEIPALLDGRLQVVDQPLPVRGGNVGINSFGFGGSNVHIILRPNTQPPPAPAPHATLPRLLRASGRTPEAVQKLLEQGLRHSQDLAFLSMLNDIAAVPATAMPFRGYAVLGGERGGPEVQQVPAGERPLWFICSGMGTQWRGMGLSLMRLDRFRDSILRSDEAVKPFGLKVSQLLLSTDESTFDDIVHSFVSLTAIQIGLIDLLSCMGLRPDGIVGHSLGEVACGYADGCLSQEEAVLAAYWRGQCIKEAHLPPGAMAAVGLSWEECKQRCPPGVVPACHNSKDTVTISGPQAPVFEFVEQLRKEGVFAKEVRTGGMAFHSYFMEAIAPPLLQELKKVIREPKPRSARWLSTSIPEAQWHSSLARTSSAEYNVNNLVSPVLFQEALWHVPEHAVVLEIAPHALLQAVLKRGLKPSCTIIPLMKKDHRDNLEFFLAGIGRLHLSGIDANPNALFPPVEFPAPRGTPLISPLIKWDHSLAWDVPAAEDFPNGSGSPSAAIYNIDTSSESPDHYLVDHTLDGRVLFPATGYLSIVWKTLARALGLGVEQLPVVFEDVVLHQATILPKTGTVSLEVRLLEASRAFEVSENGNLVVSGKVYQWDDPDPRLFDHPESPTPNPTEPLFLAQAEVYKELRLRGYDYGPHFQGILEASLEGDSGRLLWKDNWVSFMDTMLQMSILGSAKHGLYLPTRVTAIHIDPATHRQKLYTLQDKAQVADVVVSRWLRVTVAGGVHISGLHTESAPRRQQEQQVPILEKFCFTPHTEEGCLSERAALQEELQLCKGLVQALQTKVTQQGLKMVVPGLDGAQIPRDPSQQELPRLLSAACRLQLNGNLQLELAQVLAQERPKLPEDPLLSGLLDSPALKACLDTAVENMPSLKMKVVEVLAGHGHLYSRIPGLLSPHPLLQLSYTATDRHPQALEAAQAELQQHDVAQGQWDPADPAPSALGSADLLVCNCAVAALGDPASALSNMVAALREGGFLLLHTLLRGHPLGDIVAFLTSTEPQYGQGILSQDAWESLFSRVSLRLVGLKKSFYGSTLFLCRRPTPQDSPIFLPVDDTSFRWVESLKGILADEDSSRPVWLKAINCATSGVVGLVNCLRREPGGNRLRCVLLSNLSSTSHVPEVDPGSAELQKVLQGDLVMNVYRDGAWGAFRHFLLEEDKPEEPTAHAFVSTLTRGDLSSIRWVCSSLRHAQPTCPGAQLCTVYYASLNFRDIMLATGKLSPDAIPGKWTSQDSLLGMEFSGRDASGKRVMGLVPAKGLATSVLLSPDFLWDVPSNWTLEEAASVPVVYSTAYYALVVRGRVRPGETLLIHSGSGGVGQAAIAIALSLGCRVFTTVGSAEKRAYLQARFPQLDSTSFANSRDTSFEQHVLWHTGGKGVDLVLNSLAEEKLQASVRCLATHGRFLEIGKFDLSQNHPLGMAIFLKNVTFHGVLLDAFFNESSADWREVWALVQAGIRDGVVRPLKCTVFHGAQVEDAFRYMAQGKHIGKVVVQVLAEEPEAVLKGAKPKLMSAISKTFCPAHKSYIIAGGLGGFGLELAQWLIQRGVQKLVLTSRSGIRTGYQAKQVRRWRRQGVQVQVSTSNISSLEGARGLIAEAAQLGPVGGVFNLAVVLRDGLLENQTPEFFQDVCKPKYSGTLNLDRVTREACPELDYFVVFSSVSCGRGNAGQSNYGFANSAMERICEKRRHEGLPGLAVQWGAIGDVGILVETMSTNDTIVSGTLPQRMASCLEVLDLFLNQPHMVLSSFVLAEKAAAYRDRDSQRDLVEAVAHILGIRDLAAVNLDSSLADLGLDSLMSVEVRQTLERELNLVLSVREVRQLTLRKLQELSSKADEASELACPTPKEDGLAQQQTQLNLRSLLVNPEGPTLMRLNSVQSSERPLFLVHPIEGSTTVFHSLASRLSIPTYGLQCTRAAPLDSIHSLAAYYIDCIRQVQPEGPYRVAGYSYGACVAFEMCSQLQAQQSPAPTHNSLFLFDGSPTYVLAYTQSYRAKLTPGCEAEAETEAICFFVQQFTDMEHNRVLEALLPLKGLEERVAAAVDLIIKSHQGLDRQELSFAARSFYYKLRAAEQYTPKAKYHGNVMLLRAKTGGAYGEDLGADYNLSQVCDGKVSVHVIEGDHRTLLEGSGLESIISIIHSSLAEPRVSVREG
T5 sequence (P33261 whole entry): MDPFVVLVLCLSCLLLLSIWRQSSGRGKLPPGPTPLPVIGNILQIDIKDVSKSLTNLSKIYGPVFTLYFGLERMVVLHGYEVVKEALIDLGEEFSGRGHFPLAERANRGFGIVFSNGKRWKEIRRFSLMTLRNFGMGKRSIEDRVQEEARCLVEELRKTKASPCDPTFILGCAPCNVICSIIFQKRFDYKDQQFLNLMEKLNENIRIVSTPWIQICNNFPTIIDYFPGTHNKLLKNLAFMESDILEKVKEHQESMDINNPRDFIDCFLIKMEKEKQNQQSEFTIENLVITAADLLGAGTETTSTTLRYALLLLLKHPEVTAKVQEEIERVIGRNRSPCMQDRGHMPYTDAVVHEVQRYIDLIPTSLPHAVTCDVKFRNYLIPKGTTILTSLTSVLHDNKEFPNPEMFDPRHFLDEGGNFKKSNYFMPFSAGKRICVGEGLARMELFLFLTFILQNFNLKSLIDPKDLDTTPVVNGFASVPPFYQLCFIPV

| SMILES | binding of FP-TAMRA to the active site of the FASN thioesterase (FASN thioesterase) | inhibition of FASN (blocking of FP-TAMRA binding) (FASN) | IC50 (FASN-TE [1]) | activity labeling of ACOT4 (ACOT4) | inhibition of palmitate synthesis in whole cells [2] | de novo palmitate synthesis/DMSO (%) [2] | further results |
| --- | --- | --- | --- | --- | --- | --- | --- |
| CCCCC(=O)Nc1nc(-c2ccc(S(=O)(=O)N3CCOCC3)cc2)cs1 [Compound 1] | blocked the binding of FP-TAMRA | showed inhibition of FASN | 0.199 µM and 0.204 µM and 0.555 µM | without effect | inhibitory activity | 40% | – |
| Cc1ccc(NC(=O)Cc2nc(-c3ccc(S(=O)(=O)N4CCOCC4)cc3)cs2)cc1 [Compound 97] | – | did not | ≥ 80 µM | – | did not inhibit palmitate synthesis | 95% | activity in the enzyme-based assay (FASN-TE [1]; negative control): no activity |
| CCC(C)C(=O)Nc1nc(-c2ccc(S(=O)(=O)N(CC)CC)cc2)cs1 (centres unmarked) [Compound 37] | blocked the binding of FP-TAMRA | – | 0.3 µM | without effect | dose-dependently inhibits palmitate synthesis | – | binding interaction (sodium channel): 74%; binding interaction (CYP450 2C19): 50%; interactions in panel of 17 proteases (17 diverse proteases): Only one interaction; mode of inhibition (FASN-TE [3]): non-competitive; IC50 (chymotrypsin): 1.7 µM; plasma levels post dosing ([4]; up to 30 min): > 3000 nM; plasma levels post dosing ([4]; up to 1 h): > 2000 nM; plasma levels post dosing ([4]; up to 2 h): > 1000 nM; binding interactions >50% in panel of 34 binding assays [5]: Only two binding interactions>50% |
| CCN(CC)S(=O)(=O)c1ccc(-c2csc(Cc3cccc(F)c3)n2)cc1 [Compound 110] | – | – | 3.15 µM | – | – | – | – |
| O=C(Nc1nc(-c2ccc(S(=O)(=O)N3CCCC3)cc2)cs1)C1CC1 [Compound 28] | – | – | 0.56 µM | – | – | – | – |
| CCCCC(=O)Nc1nc(-c2ccc(S(=O)(=O)N3CCC(C)CC3)cc2)cs1 [Compound 22] | blocked the binding of FP-TAMRA | – | 0.501 µM | without effect | – | – | – |
